One data set deals with T1, AR in VCaP cells (Homo sapiens, UniProt P10275).
T1 construct: Assay on degradation activity for AR in VCaP cells; endogenous in cells; host or cells: VCaP cells
T1 sequence (P10275 1-920): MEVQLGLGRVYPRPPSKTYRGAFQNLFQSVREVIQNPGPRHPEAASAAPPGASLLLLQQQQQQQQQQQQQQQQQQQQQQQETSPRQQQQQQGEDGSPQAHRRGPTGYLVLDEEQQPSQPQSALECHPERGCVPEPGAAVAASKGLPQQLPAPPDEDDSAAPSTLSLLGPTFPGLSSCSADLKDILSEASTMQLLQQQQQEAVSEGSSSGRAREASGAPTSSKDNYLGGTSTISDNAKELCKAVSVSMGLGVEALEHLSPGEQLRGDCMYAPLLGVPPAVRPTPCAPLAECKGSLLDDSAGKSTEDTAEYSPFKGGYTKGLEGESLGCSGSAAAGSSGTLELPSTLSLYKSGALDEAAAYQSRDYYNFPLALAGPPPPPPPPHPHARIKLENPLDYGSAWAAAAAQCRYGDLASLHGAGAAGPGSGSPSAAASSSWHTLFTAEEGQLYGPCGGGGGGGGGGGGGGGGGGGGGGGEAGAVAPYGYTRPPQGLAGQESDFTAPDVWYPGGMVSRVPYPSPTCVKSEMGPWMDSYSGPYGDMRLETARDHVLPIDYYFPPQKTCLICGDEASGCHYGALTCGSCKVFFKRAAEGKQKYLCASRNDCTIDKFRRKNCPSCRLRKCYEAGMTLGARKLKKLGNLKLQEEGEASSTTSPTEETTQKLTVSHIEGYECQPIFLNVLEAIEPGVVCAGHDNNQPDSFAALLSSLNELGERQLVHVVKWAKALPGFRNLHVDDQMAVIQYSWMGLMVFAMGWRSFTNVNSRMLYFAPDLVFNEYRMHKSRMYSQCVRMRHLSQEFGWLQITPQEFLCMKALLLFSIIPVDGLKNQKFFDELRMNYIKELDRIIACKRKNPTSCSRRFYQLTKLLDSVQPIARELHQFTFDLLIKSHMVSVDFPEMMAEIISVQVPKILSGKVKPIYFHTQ
As to the kind of experiment: Assay on degradation activity for AR in VCaP cells (HTRF human androgen receptor detection kit). The settings on record: 24 h; for DC50: AR degradation; for Dmax: maximum degradation rate. In kind it is cell-based. The protocol:
The detection was carried out using the HTRF HUMAN ANDROGEN RECEPTOR DETECTION KIT (cisbio, 64ANDRPEG), 4× Supplemented Lysis buffer was prepared using the Blocking reagent stock solution (100×) and Lysis buffer stock solution (4×), and 1× Supplemented Lysis buffer was prepared using the 4× Supplemented Lysis buffer and ddH2O. Premixed antibody solutions were prepared using Detection buffer, Androgen Receptor Eu Cryptate antibody, and Androgen Receptor d2 antibody.
The cells were cultured overnight in a cell incubator. […] After the cells were oscillated for 40 min at room temperature, 16 µL of the cell lysis buffer was added to a 384-well plate, the Premixed antibody solutions were added at 4 µL/well, and the mixture was left to stand at 25 °C for 2 h. […] Table 1. Degradation activity of compounds for AR in VCaP cells

Data set [1] in a line: In vitro liver microsome stability, mouse. Type of data set: in vitro ADME. The settings on record: mouse liver microsomes 0.5 mg/mL, 37 °C, NADPH. How it is done:
(§1) Liver microsome incubation samples were prepared by mixing a PBS buffer (pH 7.4), a liver microsome solution (0.5 mg/mL), a test compound, and an NADPH + MgCl2 solution, followed by incubation at 37 °C and 300 rpm for 1 h. Zero-hour samples were prepared by mixing a PBS buffer (pH 7.4), a liver microsome solution (0.5 mg/mL), and a test compound. […]
A general note: Liver microsomes are a subcellular fraction often used to study metabolism.

A short description of data set [2]: In vitro liver microsome stability, human. Type of data set: in vitro ADME. The settings on record: human liver microsomes 0.5 mg/mL, 37 °C, NADPH. The protocol:
as §1

A further data set concerns VCaP cells. In words: Assay on inhibitory activity for VCaP cell proliferation (CCK-8). To be noted: Homo sapiens, 168 h. In kind it is cell-based.

Structures are written as SMILES. Bounds are passed on as bounds.

As a reminder, the DC50 is the midpoint of the concentration-degradation curve. High values mean degradation only at high concentration, low ones degradation at low concentration. As usually defined, the Dmax is the largest share of the target that was removed. The low end stands for a partial loss of target, the high end for a fuller loss of target. On AR in VCaP cells, `COc1cc(O[C@H]2C(C)(C)[C@H](NC(=O)c3ccc(N4CCC(CN5CCc6c(ccc7c(C8CCC(=O)NC8=O)noc67)C5)CC4)nn3)C2(C)C)ccc1C#N` (some centres unmarked) [Compound 6] returned a DC50 of under 5 nM and a Dmax of over 75%. The “MLM (mouse) Remaining amount at 60 min %” value in data set [1] was over 70%.

For orientation: IC50 means the concentration at which inhibition is half-maximal. A low value points to greater potency. Take `COc1cc(O[C@H]2C(C)(C)[C@H](NC(=O)c3ccc(N4CCC(CN5CCc6c(ccc7c(C8CCC(=O)NC8=O)noc67)C5)CC4)cc3)C2(C)C)ccc1C#N` (some centres unmarked) [Compound 1]: in data set [2], the “HLM (human) Remaining amount at 60 min %” value was over 70%. On AR in VCaP cells, this compound gave a DC50 of under 5 nM and a Dmax of over 75%. The “MLM (mouse) Remaining amount at 60 min %” value in data set [1] was over 70%. Also, the half-inhibitory concentration (IC50) in the data set with VCaP cells is under 2000 nM.

Take `COc1cc(O[C@H]2C(C)(C)[C@H](NC(=O)c3cnc(N4CCC(CN5CCc6c(ccc7c(C8CCC(=O)NC8=O)noc67)C5)CC4)cn3)C2(C)C)ccc1C#N` (some centres unmarked) [Compound 5]: the “HLM (human) Remaining amount at 60 min %” value in data set [2] is over 70%. Moreover, on AR in VCaP cells, the half-maximal degradation concentration (DC50) was under 5 nM and the Dmax is over 75%. In addition, in data set [1], the “MLM (mouse) Remaining amount at 60 min %” value is over 70%. The same compound displayed a half-inhibitory concentration (IC50) with VCaP cells of under 2000 nM.

Regarding `COc1cc(O[C@H]2C(C)(C)[C@H](NC(=O)c3ccc(N4CCC(CN5CCc6c(ccc7c(C8CCC(=O)NC8=O)noc67)C5)CC4)nc3)C2(C)C)ccc1C#N` (some centres unmarked) [Compound 3], the “HLM (human) Remaining amount at 60 min %” value in data set [2] was over 70%. At AR in VCaP cells, this compound had a DC50 of under 5 nM and a maximal degradation (Dmax) of over 75%. For the same compound, the “MLM (mouse) Remaining amount at 60 min %” value in data set [1] is over 70%. This compound registered a half-maximal inhibitory concentration (IC50) in the data set with VCaP cells of under 2000 nM.

In the case of `COc1cc(O[C@H]2C(C)(C)[C@H](NC(=O)c3cnc(N4CCC(CN5CCc6c(ccc7c(C8CCC(=O)NC8=O)noc67)C5)CC4)nc3)C2(C)C)ccc1C#N` (some centres unmarked) [Compound 4], in data set [2], the “HLM (human) Remaining amount at 60 min %” value is recorded as over 70%. At AR in VCaP cells, this compound registered a DC50 of under 5 nM and a Dmax of over 75%. Besides, the “MLM (mouse) Remaining amount at 60 min %” value in data set [1] was over 70%. The compound also yielded an IC50 with VCaP cells of under 2000 nM.

These data come from patent EP4768489A1, “CYCLOBUTYL-CONTAINING COMPOUNDS” (Chia Tai Tianqing Pharmaceutical Group Co., Ltd., priority 2023, dated 2025).
